Results from patent US20260355094A1, “COMBINATION OF AN ORGANOSILICON COMPOUND WITH A CROSSLINKED GLYCOSAMINOGLUCAN FOR PREVENTING AND REPAIRING CUTANEOUS AGEING” (LABORATOIRES FILL-MED MANUFACTURING, priority 2022, published 2026).

Experiments:
[1] = system: fibroblasts; experiment: Contractile force of fibroblasts in equivalent dermis (Glassbox system); format: cell-based; details: 2.5 ng/ml, positive contraction control
Protocol: AFU+Si was tested to evaluate the effect on contractile force of fibroblasts in a Glassbox system, when compared to Si and AFU.
An equivalent dermis was developed in a culture box consisting of eight rectangular tanks. In each tank, two flexible blades were plunged, the lower parts of which were made up of grids on which the equivalent dermis clang during its polymerization. The equivalent dermis developed between the two blades to result in a rectangular shape slightly narrowed in the center.
Under the influence of the contraction forces developed by fibroblasts, the blades were deformed. Their deformation was measured in real time using optical fibers and adapted software. The deformation was proportional to the force developed within the equivalent dermis.
Prior to the test for contractile force, different concentrations of products diluted in cellular culture medium were tested for cellular viability. Among these, the following concentrations were chosen for the contractile force test: 0.005%, 0.05%, 0.0005% and 0.0025%.

[2] = system: elastin; details: in combination with resveratrol; human skin fibroblasts; cited from earlier work
[3] = system: collagen type I; details: in combination with resveratrol; human skin fibroblasts; cited from earlier work
[4] = system: hyaluronan synthase type 2 (HAS2); details: in combination with resveratrol; human skin fibroblasts; cited from earlier work

TGFβ1: used as a positive contraction control
contractile forces [1]: significant increase in contractile forces

C[SiH2]O.O=C[C@@H](O)[C@@H](O)[C@H](O)[C@H](O)C(=O)O [methylsilanol mannuronate]
expression of elastin gene [2]: promoting the expression
expression of collagen type I gene [3]: promoting the expression
expression of hyaluronan synthase type 2 (HAS2) gene [4]: promoting the expression
